Columns and labels:
Assay type in all cases: biochemical, horseradish
HRP [1] = molecular target: T1, HRP (Armoracia rusticana, UniProt P00433); test: Fluorescence signal/background measurements in the presence of HRP; conditions: HRP 13.8 fmol, t=15 min vs t=0
T1 sequence (P00433 31-338): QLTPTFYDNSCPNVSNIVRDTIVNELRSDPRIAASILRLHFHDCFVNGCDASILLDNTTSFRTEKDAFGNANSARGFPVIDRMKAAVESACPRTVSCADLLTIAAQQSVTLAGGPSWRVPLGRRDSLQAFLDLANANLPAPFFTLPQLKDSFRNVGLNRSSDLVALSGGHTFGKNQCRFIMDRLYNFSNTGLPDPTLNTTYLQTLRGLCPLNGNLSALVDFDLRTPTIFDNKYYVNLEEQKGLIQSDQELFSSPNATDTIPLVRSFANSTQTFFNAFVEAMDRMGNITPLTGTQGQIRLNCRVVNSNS
Protocol: Three mL of a solution of each substrate in either the acidic or basic formulation described in Example 12 were pipetted into a cuvette. HRP (13.8 fmol, 4.6×10^−12M) was added and mixed thoroughly. The increase in fluorescence at the maximum was recorded after 15 min for each substrate. Signal-background values were calculated by comparing the fluorescence intensities at t=0 minutes and t=15 minutes.

HRP [2] = molecular target: T1, HRP; test: Evaluation of substrates: fluorescence spectra of the product formed by reaction with HRP; conditions: 0.05 mM substrate, HRP 13.8 fmol
Protocol: Enhanced reagent formulations containing each of Compounds 1-13 were prepared in either the Basic Formulation or the Acidic Formulation described below.
Fluorescence spectra were obtained on a Jobin Yvon/SPEX FluoroMax-3 spectrofluorometer with the excitation and emission slits set at 1.0 nm bandpass. UV Fluorimeter cuvettes (3.5 mL capacity, Perfector Scientific) were used.
Each of Compounds 1-13 was tested for production of a fluorescent product by reaction with HRP followed by spectrofluorometric analysis. A representative procedure using Compound 1 is described below. Essentially the same procedure was used for the other compounds.
Three mL of a 0.05 mM solution of ethyl N-methylacridan 9-carboxylate (Compound 1) in the acidic formulation were pipetted into a cuvette. Excitation (λem=524 nm) and emission (λex=[…]) spectra were recorded. HRP (13.8 fmol, 4.6×10^−12M) was added and mixed thoroughly. The increase in fluorescence at 524 nm was recorded over 15 min. Excitation (λem=524 nm) and emission (λex=357 nm) spectra were recorded again.

HRP [3] = molecular target: T1, HRP; test: Fluorescent detection sensitivity of HRP (microtiter plate fluorometer, FIG. 3); conditions: 0.05 mM substrate in acidic formulation
Protocol: FIG. 3 is a graph showing the linearity of detection of HRP using fluorogenic substrates performed according to the methods of the present invention. Solutions containing 0.05 mM substrate 1 or 4, 0.1 mM 4-phenylphenol, 0.5 mM urea peroxide, 1 mM EDTA, 0.025% TWEEN 20 in 10 mM acetate buffer, pH 5 and a solution of 0.05 mM substrate 2, 0.1 mM 4-phenylphenol, 0.5 mM urea peroxide, 1 mM EDTA, 0.025% TWEEN 20 in 10 mM in 10 mM tris, pH 8 were reacted with the indicated quantities of HRP. After a reaction period of 15-20 min, fluorescence intensity was measured at the maximum. The term Intensity-Background refers to the fluorescence intensity in relative light units in the presence of HRP corrected for background fluorescence (B) in the absence of HRP. […]
Fluorescence detection limits were obtained on a Labsystems Fluoroskan Ascent microtiter plate fluorometer using an excitation bandpass filter (380 nm) and an emission bandpass filter (465 or 530 nm). […] The strips were then read on the Fluoroskan Ascent with the 380 nm-530 nm filter set.
(§1) HRP was serially diluted in type 1 water and 10 μl of diluted HRP was pipetted into each well. […] The strips were then read on the Fluoroskan Ascent with the 380 nm-465 nm filter set.
as §1

HRP [4] = molecular target: T1, HRP; test: Fluorescent detection of HRP by acridinium ester end product formation; conditions: for Fluorescence wavelength of the acridinium end product: reaction with HRP, tris pH 8.0
Protocol: Forty μL of a detection reagent consisting of 0.05 mM compound 14, 0.6 mM urea peroxide, 0.1 mM p-phenylphenol, 0.025% TWEEN 20, 1 mM EDTA in 0.01 M tris buffer, pH 8.0 was reacted with 1 μL of HRP (1.4×10^−16 mol) at room temperature. Acridinium ester end product formation was detected after 5 min and continued to increase over 1 h as detected by spectrophotometry and fluorescence at 500 nm. [drawing 12]

HRP [5] = molecular target: T1, HRP; test: Sequential fluorescence spectra and kinetics of fluorescent product formation with HRP
Description: FIG. 1 is a graph showing a series of sequential fluorescence spectra obtained from a reaction solution containing Compound 10 and HRP. The spectra correspond to the fluorescence of the acridinium product. For comparison, the fluorescence spectrum of an independently prepared sample of N-methylacridinium triflate is shown.
FIG. 2 is a graph showing the time course of the generation of fluorescent product from the reaction described in FIG. 1. The product is monitored by excitation at 357 nm and detecting fluorescence emission at 495 nm.
FIG. 4 is a graph showing the a series of sequential fluorescence spectra obtained from a reaction solution containing compound 12 and HRP. The spectra reveal the formation of the acridinium ester intermediate and N-methylacridone product.
Three mL of a 0.05 mM solution of N-methylacridan in the acidic formulation were pipetted into a cuvette. HRP (13.8 fmol, 4.6×10^−12M) was added and mixed thoroughly. Emission spectra (excitation at 357 nm) were obtained at 4.5 minute intervals over 1.8 h. The emission spectrum (excitation at 357 nm) of a 0.05 mM solution of N-methyl acridinium triflate in the acidic formulation is also shown for comparison with the emission spectra from the N-methylacridan/HRP solution.
FIG. 2 depicts the fluorescence intensity at 495 nm (with excitation at 357 nm) from the reaction solution of Example 16 as a function of time. Fluorescence intensity reached a maximum in 2 h and remained constant.
Three mL of a reagent containing 0.3 mM 2′,3′,6′-trifluorophenyl 10-methylacridan-9-carboxylate (compound 12), 0.1 mM 4-phenylphenol, 0.5 mM urea peroxide, 1 mM EDTA, and 0.025% TWEEN 20 in 0.01 M tris buffer, pH 8.0 were pipetted into a cuvette. HRP (13.8 fmol, 4.6×10^−12M) was added and mixed thoroughly. Emission spectra (excitation at 357 nm) were obtained at 4.5 minute intervals over 1.8 h.

[6] = 0.05 mM substrate, tris pH 8.0, HRP 1.4×10^−16 mol, room temperature

Row | SMILES | Fluorescent intensity in the presence of HRP (as S/B) (HRP [1]; pH 5 acidic formulation) | Fluorescent properties of acridan substrates (fluorescence emission maximum after reaction with HRP) (HRP [2]; pH 5 acidic formulation) | Fluorescent properties of acridan substrates (fluorescence emission maximum after reaction with HRP) (HRP [2]; pH 8 basic formulation) | also measured
1 | CC1c2ccccc2N(C)c2ccccc21 [Compound 7] | 15.8 | 490 nm | 488 nm | –
2 | c1ccc(N2c3ccccc3C(C3c4ccccc4N(c4ccccc4)c4ccccc43)c3ccccc32)cc1 [Compound 11] | 84.0 | 494 nm | 494 nm | Fluorescent intensity in the presence of HRP (as S/B) (HRP [1]; pH 8 basic formulation): 6.1
3 | Fc1ccc(N2c3ccccc3Cc3ccccc32)cc1 [Compound 4, N-(4-fluorophenyl)acridan] | 3.9 | 497 nm | 496 nm | Fluorescent detection sensitivity of HRP (in words) (HRP [3]): excellent sensitivity
4 | O=C(O)C1c2ccccc2N(Cc2ccccc2)c2ccccc21 [Compound 8, N-benzyl-acridan-9-carboxylic acid] | – | – | 493 nm | –
5 | CN1c2ccccc2C(C(=O)O)c2ccccc21 [Compound 9] | – | – | 489 nm | Fluorescent intensity in the presence of HRP (as S/B) (HRP [1]; pH 8 basic formulation): 4.3
6 | COc1ccc2c(c1)N(C)c1c(C)ccc(OC)c1C2C(=O)Oc1c(F)ccc(F)c1F (stereo not shown) [Compound 15, 2,3,6-trifluoro-phenyl 1,6-dimethoxy-4,10-dimethylacridan-9-carboxylate] | – | – | – | Result of the reaction with HRP (in words) (HRP [4]; experiment similar to that with compound 14): fluorescent acridinium end product formation; Fluorescence wavelength of the acridinium end product (HRP [4]): 500 nm
7 | CN1c2ccccc2C(C(=O)Oc2c(F)ccc(F)c2F)c2ccccc21 [Compound 12, 2′,3′,6′-trifluorophenyl 10-methylacridan-9-carboxylate, reference compound] | – | – | – | Progression of the HRP reaction from emission spectra (in words) (HRP [5]; 0.3 mM substrate, tris buffer pH 8.0, HRP 13.8 fmol, spectra every 4.5 min over 1.8 h): grow in of acridinium fluorescence and gradual predominance of N-methylacridone fluorescence
8 | COc1ccc(C2c3ccccc3N(C)c3ccccc32)cc1 [Compound 3] | 1.4 | 484 nm | 484 nm | –
9 | COc1ccc2c(c1)N(C)c1cccc(OC)c1C2C(=O)Oc1c(F)ccc(F)c1F (stereo not shown) [Compound 14] | – | – | – | Period over which end product formation continued to increase (HRP [4]; [6]): 1 h; Time after which acridinium ester end product formation was detected (HRP [4]; [6]): 5 min; Fluorescence wavelength of the acridinium end product (HRP [4]): 500 nm
10 | COc1ccc2c(c1)N(c1ccccc1)c1ccccc1C2 [Compound 6] | 3.6 | 512 nm | 511 nm | –
11 | CCOC(=O)C1c2ccccc2N(C)c2ccccc21 [Compound 1, ethyl N-methylacridan 9-carboxylate] | 29.5 | 524 nm | 524 nm | Fluorescent intensity in the presence of HRP (as S/B) (HRP [1]; pH 8 basic formulation): 11.0; Fluorescent detection sensitivity of HRP (in words) (HRP [3]): excellent sensitivity
12 | c1ccc(CN2c3ccccc3Cc3ccccc32)cc1 [Compound 5, N-benzylacridan] | 5.6 | 494 nm | 494 nm | –
13 | CN1c2ccccc2Cc2ccccc21 [Compound 10, N-methylacridan] | – | – | 490 nm | Time at which fluorescence intensity reached a maximum (HRP [5]; 0.05 mM in acidic formulation, HRP 13.8 fmol, emission 495 nm, excitation 357 nm): 2 h; Product of the HRP reaction identified from emission spectra (in words) (HRP [5]; 0.05 mM in acidic formulation, HRP 13.8 fmol, excitation 357 nm, compared with N-methyl acridinium triflate): enzymatic conversion of Compound 10 to the fluorescent acridinium compound

Source: patent US6897036B2, “Fluorescent detection of peroxidase enzymes” (Lumigen, Inc., priority 2002, dated 2005)
